Experimental data from patent US20230218723A1, “COMPOSITIONS AND METHODS FOR USING SILK-ELASTINLIKE PROTEIN-BASED POLYMERS” (University of Utah Research Foundation, priority 2019, published 2023).

Columns and labels:
[1] = system: L-929 fibroblasts; assay: Cytotoxicity of ICG and SELP-ICG, CCK-8, L-929; assay type: cell-based, murine; conditions: L929 cells, 24 hrs, as ICG concentration
Text: (§1) L-929 and HUVEC were selected for use in assessing the cytotoxicity of the SELP-ICG embolic based upon their utility with respect to regulatory testing and relevance to the intended application of the device. L-929 cells are commonly used for FDA testing of contact cytotoxicity of medical devices, such as embolics. HUVEC represents a human cell line, another common cell that is also frequently used for evaluating cytotoxicity. Additionally, HUVEC represents vascular endothelial cells that embolic SELP will be in close contact with during in vivo administration. L-929 fibroblasts were grown with Dulbecco's Modified Eagle Medium (DMEM):F12 (1:1) media, supplemented with 10% FBS, and HUVECs were grown in ECGM. The cells were grown in T-75 flasks at 37° C. with 5% CO2 and passaged at 80-95% confluency. Cells were suspended using TrypLE™ Express Enzyme with no phenol red according to the manufactures protocol. The viability of cells was assessed using 0.4% trypan blue stain using a Countess Automated Cell Counter (ThermoFisher Scientific, Waltham, Mass.). L-929 cells were seeded into new T-75 flasks with 3×10^5 to 6×10^5 viable cells. […] Viability was measured after 24 hrs using a Cell Counting Kit (CCK)-8 assay kit (Dojindo, Kumamoto, Japan). […] LD50 values were determined by fitting the data to a Hill plot with a variable slope using GraphPad Prism 5.0.

[2] = system: HUVEC; assay: Cytotoxicity of ICG and SELP-ICG, CCK-8, HUVEC; assay type: cell-based, human; conditions: 24 hrs, as ICG concentration
Text: as §1

[3] = cited from earlier work
[4] = ICG fluorescence imaging, IVIS and clinical endoscope; assay type: physicochemical
Protocol: A Karl Storz 4 mm×18 cm ICG endoscope (Karl Storz, Tuttlingen, Germany) attached with a Power LED light source with fiber optic ICG cable and Karl Storz Image is Video System with ICG High Def Camera Head (Karl Storz, Tuttlingen, Germany) was used for imaging the ICG at different concentrations. ICG solution was prepared by mixing 25 mg of ICG in 1 mL of water, resulting in a 25 mg/mL solution. The solution was diluted by half in subsequent wells of a 96-well plate, and the last well was filled with only water (negative control). The endoscope's imaging head was held 4 mm above the surface of the 96-well plate to acquire images. Fluorescent light was captured by the camera and shown as blue. The intensity of the fluorescent light was quantified using the Zen Lite Blue software version 2.6 (Zeiss, Oberkochen, Germany). A fixed area of equal size for each well was selected, and the fluorescence was quantified by taking the arithmetic mean intensity of blue contribution for that particular region in pixels. IVIS was used to image ICG at different concentrations. […] An overlay image combination of photographic and fluorescent image was recorded. The region of interest (ROI) tool was used to perform quantification of the surface intensities. Equal size ROIs were drawn on each well of the plate, and the radiant efficiency was recorded by the software for each defined ROI. […]

## CC1(C)C(/C=C/C=C/C=C/C=C2\N(CCCCS(=O)(=O)O)c3ccc4ccccc4c3C2(C)C)=[N+](CCCCS(=O)(=O)[O-])c2ccc3ccccc3c21 [ICG, Indocyanine green]
[1]
  LD50: 0.28 ± 0.14 mg/mL
[2]
  LD50: 0.068 ± 0.009 mg/mL
[3]; clearance from the bloodstream after intravenous administration
  half-life: 3 to 5 min
[3]; intravenous administration
  share of the dose remaining within the tumor by the time of surgery: approximately 0.05%
[4]; IVIS and Karl Storz ICG endoscope
  optimal concentration for fluorescence: 0.012 mg/mL
[4]; image analysis
  concentration above which self-quenching occurs: higher than 0.012 mg/mL
